The PolyMetriX glass transition set

| glass transition temperature [°C] | SMILES |
| --- | --- |
| 34.00 | *c1ccc(-c2ccc3c(c2)C(CCCCCCCC)(CCCCCCCC)c2cc(*)ccc2-3)c(F)c1 (repeat unit) |
| 101.00 | *Oc1ccc(Oc2ccc(Oc3cccc(C(=O)Oc4ccc(OC(=O)c5cccc(*)c5)cc4)c3)cc2)cc1 (repeat unit) |
| 225.00 | *Nc1ccc(C(c2ccc(NC(=O)c3cc(NC(=O)CCCCCN4C(=O)c5ccccc5C4=O)cc(C(*)=O)c3)cc2)(C(F)(F)F)C(F)(F)F)cc1 (repeat unit) |
| 383.00 | *c1ccc(-c2ccc3nc(*)cc(-c4ccccc4)c3c2)cc1 (repeat unit) |
| 222.00 | *c1ccc(Oc2ccc(C(=O)c3cccc(C(=O)c4ccc(Oc5ccc(N6C(=O)c7ccc(-c8ccc9c(c8)C(=O)N(*)C9=O)cc7C6=O)cc5)cc4)c3)cc2)cc1 (repeat unit) |
| 418.00 | *c1c(C)cc(C)c(N2C(=O)c3ccc(S(=O)(=O)c4ccc5c(c4)C(=O)N(*)C5=O)cc3C2=O)c1C (repeat unit) |
| 245.00 | *c1ccc(Oc2ccc(N3C(=O)c4ccc(Oc5ccc6ccc(Oc7ccc8c(c7)C(=O)N(*)C8=O)cc6c5)cc4C3=O)cc2)cc1 (repeat unit) |
| 358.00 | *c1ccc2c(c1)C(=O)N(c1ccc(-c3ccc(N4C(=O)c5ccc(C(*)(C(F)(F)F)C(F)(F)F)cc5C4=O)c(O)c3)cc1O)C2=O (repeat unit) |
| 192.00 | *Oc1ccc(S(=O)(=O)c2ccc(Oc3ccc(C(=O)c4cc(Br)cc(C(=O)c5ccc(*)cc5)c4)cc3)cc2)cc1 (repeat unit) |
| 167.00 | *Oc1ccc(S(=O)(=O)c2ccc(Oc3ccc(NC(=O)c4ccc(Oc5ccc(C(C)(C)c6cccc(C(C)(C)c7ccc(Oc8ccc(C(=O)Nc9ccc(*)cc9)cc8)cc7)c6)cc5)cc4)cc3)cc2)cc1 (repeat unit) |
| 230.00 | *c1ccc(Oc2ccc(N3C(=O)c4ccc(Oc5ccc(C6(c7ccc(Oc8ccc9c(c8)C(=O)N(*)C9=O)cc7)CCCCCCCCCCC6)cc5)cc4C3=O)cc2)cc1 (repeat unit) |
| -9.00 | */C=C/[Si](*)(c1ccccc1)c1ccccc1 (repeat unit) |
| 98.00 | *c1cc(Br)c(-c2c(Br)cc(N3C(=O)c4ccc(-c5ccc6c(c5)C(=O)N(*)C6=O)cc4C3=O)cc2C(=O)OCCCCCCCCCCCCCC)c(C(=O)OCCCCCCCCCCCCCC)c1 (repeat unit) |
| 162 | *c1ccc(Oc2ccc(C(C)(C)c3ccc(Oc4ccc(S(*)(=O)=O)cc4)cc3)cc2)s1 (repeat unit) |
| 335.00 | *c1ccc2c(c1)C(=O)N(c1cc(N3C(=O)c4ccc(C(*)(C(F)(F)F)C(F)(F)F)cc4C3=O)ccc1C)C2=O (repeat unit) |
| 59.20 | *CC(*)(C)C(=O)OCCCCn1c2ccccc2c2ccccc21 (repeat unit) |
| 254.00 | *Oc1ccc(C(c2ccccc2)(c2ccccc2)c2ccc(Oc3ccc(C(=O)Nc4ccc(NC(=O)c5ccc(*)cc5)cc4)cc3)cc2)cc1 (repeat unit) |
| 188.00 | *Oc1ccc(S(=O)(=O)c2ccc(Oc3ccc(C(C)(C)c4ccc(*)cc4)cc3)c(S(=O)(=O)O)c2)cc1S(=O)(=O)O (repeat unit) |
| 174.00 | *Oc1ccc(NC(=O)c2ccc(Oc3ccc(C(C)(C)c4ccc(C(C)(C)c5ccc(Oc6ccc(C(=O)Nc7ccc(*)cc7)cc6)cc5)cc4)cc3)cc2)cc1 (repeat unit) |
| 154.00 | *Oc1ccc(C(C)(C)c2cccc(C(C)(C)c3ccc(Oc4ccc(C(=O)Nc5ccc(NC(=O)c6ccc(*)cc6)cc5)cc4)cc3)c2)cc1 (repeat unit) |
| 49.80 | *CC(OC(=O)OCC)C(COC(=O)O*)OC(=O)OCC (repeat unit) |
| 335.00 | *Oc1ccc(NC(=O)c2cc(NC(=O)C34CC5CC(CC(C5)C3)C4)cc(C(=O)Nc3ccc(*)cc3)c2)cc1 (repeat unit) |
| 288.00 | *c1ccc(Sc2ccc(-c3nc4ccc(-c5ccc6nc(*)c(-c7ccccc7)nc6c5)cc4nc3-c3ccccc3)cc2)cc1 (repeat unit) |
| 178.00 | *c1ccc(NC(=O)CCCCCCCC(=O)Nc2ccc(S(*)(=O)=O)cc2)cc1 (repeat unit) |
| 278.00 | *c1ccc(Oc2ccc(N3C(=O)CC(C4C=C(C)C5C(=O)N(*)C(=O)C5C4)C3=O)cc2)cc1 (repeat unit) |
| 96.00 | *CCCCCCCCNC(=O)c1ccc(C(=O)N*)c(Oc2ccccc2)c1 (repeat unit) |

| glass transition temperature [°C] | SMILES |
| --- | --- |
| 135.00 | *Oc1ccc(C(c2ccc(OC(*)=S)cc2)C(C)C)cc1 (repeat unit) |
| 13.00 | *CC(*)OCCCCCCCOc1ccc(-c2ccc(C#N)cc2)cc1 (repeat unit) |
| -2.40 | *[O][Ca][O]C(=O)c1ccccc1C(=O)OCCCCCOC(=O)NCCCCCCNC(=O)OCCCCCOC(=O)c1ccccc1C(*)=O (repeat unit) |
| 268.00 | *c1ccc(-c2ccc(-n3c(-c4ccc(Oc5ccc(C(=O)c6ccc(Oc7ccc(-c8nc9ccccc9n8*)cc7)cc6)cc5)cc4)nc4ccccc43)cc2)cc1 (repeat unit) |
| 111.00 | *CC(O)COc1ccc(C(C)(C)c2ccc(OCC(O)COc3cccc(NC(=O)CCCC(=O)Nc4cccc(O*)c4)c3)cc2)cc1 (repeat unit) |
| 67.00 | *CCCS(=O)(=O)CCCS(=O)(=O)CCCOC(=O)c1cccc(C(=O)O*)c1 (repeat unit) |
| 27.80 | *CC(*)(C)C(=O)OCc1cc(Cl)ccc1Cl (repeat unit) |
| 196.00 | *Oc1c(Br)cc(S(=O)(=O)c2cc(Br)c(OC(*)=O)c(Br)c2)cc1Br (repeat unit) |
| 143.00 | *CC#CC#CCOC(=O)c1ccc(C(=O)O*)cc1 (repeat unit) |
| 300.00 | *c1ccc(Oc2ccc(S(=O)(=O)c3ccc(Oc4ccc(-c5c6c(c(*)c7ccccc57)C(=O)N(c5ccc(F)cc5)C6=O)cc4)cc3)cc2)cc1 (repeat unit) |
| 145.00 | *CC(*)C(=O)Oc1c(Cl)c(Cl)c(Cl)c(Cl)c1Cl (repeat unit) |
| 231.00 | *c1ccc(NC2CC(=O)N(c3ccc(-c4sc(-c5ccc(N6C(=O)CC(Nc7ccc(-c8nc(C#N)c(C#N)nc8*)cc7)C6=O)cc5)c(-c5ccccc5)c4-c4ccccc4)cc3)C2=O)cc1 (repeat unit) |
| 244.00 | *c1cccc(C(=O)Nc2ccc(Oc3ccc(Oc4ccc(Oc5ccc(NC(=O)c6cccc(N7C(=O)c8ccc(-c9ccc%10c(c9)C(=O)N(*)C%10=O)cc8C7=O)c6)cc5)cc4)cc3)cc2)c1 (repeat unit) |
| 232.00 | *Oc1ccc(Oc2ccc(C(=O)Nc3ccc(Oc4ccc(-c5ccc(Oc6ccc(NC(=O)c7ccc(*)cc7)cc6)cc5)cc4)cc3)cc2)cc1-c1ccccc1 (repeat unit) |
| 253.00 | *c1cccc(C(=O)Nc2ccc(Oc3ccc(NC(=O)c4cccc(N5C(=O)c6ccc(-c7ccc8c(c7)C(=O)N(*)C8=O)cc6C5=O)c4)cc3)cc2)c1 (repeat unit) |
| 308.00 | *C(=O)Nc1cccc(C(=O)c2cccc(NC(=O)c3ccc4c(c3)C(=O)N(c3ccc(-c5sc(-c6ccc(N7C(=O)c8ccc(*)cc8C7=O)cc6)c(-c6ccccc6)c5-c5ccccc5)cc3)C4=O)c2)c1 (repeat unit) |
| 249.00 | *c1ccc(-c2ccc(Oc3ccc(C4(C)CC(C)(C)c5ccc(Oc6ccc(-c7ccc(N8C(=O)c9ccc(Oc%10ccc%11c(c%10)C(=O)N(*)C%11=O)cc9C8=O)cc7)cc6C(F)(F)F)cc54)cc3)c(C(F)(F)F)c2)cc1 (repeat unit) |
| 264.10 | *c1c(C)cc(C(c2cccc(C(F)(F)F)c2)c2cc(C)c(N3C(=O)c4ccc(Oc5ccc6c(c5)C(=O)N(*)C6=O)cc4C3=O)c(C)c2)cc1C (repeat unit) |
| 124.30 | *c1nnc(-c2sc(-c3nnc(-c4cc(OCCCCCCCC)c(*)cc4OCCCCCCCC)o3)cc2CCCCCCCC)o1 (repeat unit) |
| 0.00 | *CCCCCCCCCCCCOc1ccc(CCc2ccc(O*)cc2C)cc1 (repeat unit) |
| -41.50 | *CCOCCOC(=O)CCCCCC(=O)O* (repeat unit) |
| 311.00 | *Nc1ccc(C(C)(C)c2ccc(NC(=O)c3cc(C(*)=O)cc(N4C(=O)C5C6CCC(C6)C5C4=O)c3)cc2)cc1 (repeat unit) |
| 243.00 | *c1ccc(Oc2ccc(C3(c4ccc(Oc5ccc(N6C(=O)c7ccc(Oc8ccc(C9(c%10ccc(Oc%11ccc%12c(c%11)C(=O)N(*)C%12=O)cc%10)CCC(c%10ccccc%10)CC9)cc8)cc7C6=O)cc5)cc4)CCC(C(C)(C)C)CC3)cc2)cc1 (repeat unit) |
| 93.80 | *Cc1ccccc1[Si](*)(C)c1ccccc1 (repeat unit) |
| 36.00 | *CCCOC(=O)c1cccc(C(=O)O*)c1 (repeat unit) |
| 260.00 | *C(=S)Nc1ccc(Oc2ccc(NC(=S)N3C(=O)c4ccc(C(c5ccc6c(c5)C(=O)N(*)C6=O)(C(F)(F)F)C(F)(F)F)cc4C3=O)cc2)cc1 (repeat unit) |

| SMILES | glass transition temperature [°C] |
| --- | --- |
| *CCOCCOC(=O)C(C)C(=O)O* (repeat unit) | -29.00 |
| *C(=O)c1ccc2c(c1)C(=O)N(c1cccc(P(=O)(c3ccc(C(F)(F)F)cc3)c3cccc(N4C(=O)c5ccc(*)cc5C4=O)c3)c1)C2=O (repeat unit) | 264.00 |
| *CC(*)c1ccc(COCCCC)cc1 (repeat unit) | 10.00 |
| *[Si](*)(CCCC)CCCC (repeat unit) | -40.50 |
| *Oc1ccc(C(C)(C)c2ccc(OC(=O)OCCN(CCOC(*)=O)c3ccc(OC)cc3)cc2)cc1 (repeat unit) | 60.00 |
| *CC(*)(C)C(=O)O (repeat unit) | 161.70 |
| *CC(COCOCC(C)([N+](=O)[O-])[N+](=O)[O-])O* (repeat unit) | -15.00 |
| *CCCCCCOC(=O)C(CCCCCCCCCCP(=O)(OCC)OCC)C(=O)OCCCCCCOc1ccc(-n2on2-c2ccc(O*)cc2)cc1 (repeat unit) | 9.00 |
| *CC(*)(C)C(=O)OCC=C (repeat unit) | 94.00 |
